From patent publication EP0326134A1, “4-Amino-2,3-disubstituted-6,7-dihydro-5H-1-pyridine derivatives, process for their preparation and medicaments containing them” (NAUCHNO-ISSLEDOVATELSKY INSTITUT TEKHNOLOGII I BEZOPASNOSTI …, priority 1988, dated 1989)
Where a name gives a salt, the structure may show the parent alone. Read-outs that look alike come from different tables or passages of the source.

Legend:
Wirkung von Hexenal = assay: Influence on the effect of Hexenal; assay type: in vivo, Mäusen; conditions: mice
[1] = system: Calciumchlorid-Arrhythmie-Modells; assay: Calcium chloride arrhythmia model (250 mg/kg): ventricular fibrillation, survival; assay type: in vivo, Ratten; conditions: rats, calcium chloride 250 mg/kg
How it was run: (§1)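 Rats were given calcium chloride by injection at 250 mg/kg, with ventricular fibrillation and survival time recorded. Isolated rabbit right atrium preparations were studied with microelectrodes for AP duration, refractory period (R), maximal inhibition (e) and the arrhythmia-susceptibility parameter e/R.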

[2] = system: durch Skopolamin hervorgerufene Amnesie; assay: Dark avoidance assay (passive avoidance), scopolamine-induced amnesia; assay type: in vivo, Mäusen; conditions: mice, compound s.c. 5 min before learning, Skopolamin i.p. 30 min before
Zahl der Krämpfe = assay: Writhing test (intraperitoneal acetic acid); assay type: in vivo, Mäusen; conditions: male mice
How it was run: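 Male mice received intraperitoneal acetic acid to induce writhing. Analgesic effect expressed as percentage reduction in the number of writhes.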

[3] = system: Nerven-Muskel-Präparat von Mäusen (n.peroneus-m.extensor digitorum longus); assay: Neuromuscular transmission in isolated nerve-muscle preparation (EPP, minEPP); conditions: for Stimulierung der Nerven-Muskelübertragung, in % der Amplitude: EPP: EPP = Endplattenpotential
How it was run: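 Mouse peroneal nerve–extensor digitorum longus preparation, isolated and perfused with O2/CO2-gassed Lilly solution. EPPs and spontaneous minEPPs were recorded by magnetograph, then analysed by computer for frequency, amplitude and duration.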

[4] = target: T1, Acetylcholinesterase menschlicher Erythrozyten (Homo sapiens, UniProt P22303); assay: Acetylcholinesterase inhibition, spectrophotometric; assay type: biochemical; conditions: Acetylcholinesteraseinhibierung bei menschlichen Erythrozyten IK, (Mol), human erythrocyte enzyme
T1 construct: Acetylcholin-esteraseinhi-bierung bei menschlichen Erythrozyten; from tissue; host or cells: human erythrocytes
Text: Untersucht wurden die Wirkmechanismen der erfindungsgemäßen Verbindungen: • 1. Die Wirkung auf Acetylcholinesterase menschlicher Erythrozyten auf spektrofotometrischem Wege. • 2.

M-cholinrezeptoren = assay: Radioligand displacement of 3H-Propyl-2-aminobenzylat in brain; assay type: binding, Kaninchens
Text: (§2) Dies beweisen spezielle Radioligandenuntersuchungen an einzelnen erfindungsgemäßen Verbindungen (s. Tabelle 6).

Orientierungsaktivität = assay: Influence on orientation activity; assay type: in vivo, Mäusen; conditions: mice
Text: Von Interesse ist der Einfluß der erfindungsgemäßen Verbindungen auf das ZNS und das Verhalten der Tiere. Alle Verbindungen zeigen eine Kombination von stimulierenden und sedativen Eigenschaften und bei höheren Dosen auch eine m-cholinomimetische Wirkung, wobei Tremor, Speichelfluß und Diarrhoe ausgelöst werden.

α2-Adrenorezeptoren = assay: Radioligand displacement of 3H-clonidine in cerebral cortex; assay type: binding, Kaninchens; conditions: for α2-adrenoblockierende Wirkung: in words, from radioligand studies
Text: as §2

[5] = Acute toxicity, single intraperitoneal injection, probit analysis (LD50); assay type: in vivo, Mäusen; conditions: mice, i.p.
Text: Ihre akute Toxizität wurde an Mäusen (einmalige intraperitoneale Injektion) nach der Methode der Probit-Analyse nach Zichtfield, Wilcoxon, t949 untersucht. In Tabelle 2 sind die Parameter der akuten Toxizität (LDso) angegeben, die eine mäßige Toxizität der erfindungsgemäßen Verbindungen belegen.

[6] = system: isolierten Präparaten des rechten Vorhofs von Kaninchen; assay: Antiarrhythmic effect on isolated right atrium preparations (microelectrodes: AP duration, refractory period R, e/R); conditions: isolated right atrium of rabbit, microelectrodes
How it was run: as §1

[7] = Side effects and CNS/behaviour: tremor (TD50), sedative and m-cholinomimetic effects; assay type: in vivo; conditions: for TD50: in vivo
Text: Von Interesse ist der Einfluß der erfindungsgemäßen Verbindungen auf das ZNS und das Verhalten der Tiere.

M2-Cholinrezeptoren = target: T2, M2-Cholinrezeptoren (Oryctolagus cuniculus, UniProt G1TBX1); assay: Radioligand displacement of 3H-Chinuklidin in heart; assay type: binding, Kaninchen; conditions: for inhibition at 10 µM / inhibition at 1 µM: read-out: Verdrängung des 3H-Chinuklidins im Kaninchenherzen (M2-Cholinrezeptoren)
T2 construct: im Kaninchen-herzen (M2-Cholinre-zeptoren); from tissue; host or cells: rabbit heart
T2 sequence (G1TBX1 1-520): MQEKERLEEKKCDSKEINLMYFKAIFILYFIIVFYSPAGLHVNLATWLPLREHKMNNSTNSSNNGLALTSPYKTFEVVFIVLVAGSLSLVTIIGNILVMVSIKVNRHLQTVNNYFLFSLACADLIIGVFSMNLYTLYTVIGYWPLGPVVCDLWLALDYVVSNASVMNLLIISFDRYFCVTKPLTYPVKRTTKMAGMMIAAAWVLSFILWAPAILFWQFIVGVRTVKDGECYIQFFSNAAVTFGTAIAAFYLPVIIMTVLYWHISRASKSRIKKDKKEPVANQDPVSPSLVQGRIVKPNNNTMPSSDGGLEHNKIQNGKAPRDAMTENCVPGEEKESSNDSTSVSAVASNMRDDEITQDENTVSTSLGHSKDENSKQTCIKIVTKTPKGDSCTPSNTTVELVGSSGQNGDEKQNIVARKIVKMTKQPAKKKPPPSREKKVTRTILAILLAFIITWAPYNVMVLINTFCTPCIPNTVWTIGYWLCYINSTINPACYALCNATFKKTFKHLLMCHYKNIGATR
Text: as §2

Uterus der Ratte = assay: Contractile activity of smooth muscle: rat uterus; conditions: n = 9; for activity at 100 µM / activity at 10 µM: Rattus norvegicus; for Serotonin 1.10^-6 (Mol): Dauer, Min.: Uterus der Ratte; for Acetylcholin 1.10^-6 (Mol): Dauer, Min.: Uterus der Ratte (as head prints)
Text: (§3) In Versuchen an glattmpskulären Organen (Uterus, Samenleiter der Ratte und Krummdarm des Meerschweinchens) wurden die Wirkung der erfindungsgemäßen Verbindungen auf die kontraktile Aktivität der glatten Muskeln und ihre Reaktionen auf den Einfluß von Acetylcholin, Serotonin, Adrenalin und KCI als Agonisten untersucht. Mit Hilfe eines Schreibers wurden die Amplitude und die Dauer der Kontraktion der glatten Muskeln unter Verwendung eines Geräts vom Typ Mechanstron-untersucht.

Samenleiter der Ratte = assay: Contractile activity of smooth muscle: rat vas deferens; conditions: n = 9; for Adrenalin 1.10^-6: Dauer, Min.: Samenleiter der Ratte
Text: as §3

[8] = system: Na -Durchlässigkeit der Membrane des Ranvier-Schnürringes; assay: Na+ permeability of the node of Ranvier membrane, voltage clamp; set-up: species or system Frosches; conditions: concentration giving 50 % block of ion permeability
Text: (§4) Untersucht wurden die Wirkmechanismen der erfindungsgemäßen Verbindungen: • 1. Die Wirkung auf Acetylcholinesterase menschlicher Erythrozyten auf spektrofotometrischem Wege. • 2. Die Wirkung auf die K - und Na -Durchlässigkeit der Membrane des Ranvier-Schnürringes (s. Fox T.M. et al. "Modification of ionic membrane currrents of Ranvier nodes by UV-radiation under voltage clamp conditions", Experientia, 27, 1289-1290 /1971/ und Arhom P. et al. "Local anesthetics: effects on permeability properties of nodal membrane in myelynated nerve fibres from xenopus". Acta physiol. Scand. 91, 11-21 /1974/) der Nervenfasern des Hüftnervs des Frosches unter Anwendung der Methode der Messung der Membranspannung (Voltage-clampmethode) (s. Derksen H.E. "Axon membrane voltage fluctuations", Acta Physiol., Pharmacol Neer, 13, 373-466 /1965/).
(§5) Alle erfindungsgemäßen Verbindungen sind Blocker für die K^+-Durchlässigkeit der Membrane analog dem Amyridin. Die Salze der bicyclischen Basen blockieren jedoch stärker die Na -Durchlässigkeit der Membrane, was sich mit ihren sedativen und analgetischen Eigenschaften in Verbindung bringen läßt.

[9] = system: K -Durchlässigkeit der Membrane des Ranvier-Schnürringes; assay: K+ permeability of the node of Ranvier membrane, voltage clamp; set-up: species or system Frosches; conditions: concentration giving 50 % block of ion permeability
Text: as §4, §5

[10] = Konzentration 1.10^-5 Mol, 10 µM
[11] = Konzentration 1.10^-6 Mol, 1 µM
[12] = toxic dose causing tremor in 50 % of the animals
[13] = mouse, in vivo, ip, read-out: LD50

T1 sequence (P22303 other isoform, or with tags, fused parts or gaps): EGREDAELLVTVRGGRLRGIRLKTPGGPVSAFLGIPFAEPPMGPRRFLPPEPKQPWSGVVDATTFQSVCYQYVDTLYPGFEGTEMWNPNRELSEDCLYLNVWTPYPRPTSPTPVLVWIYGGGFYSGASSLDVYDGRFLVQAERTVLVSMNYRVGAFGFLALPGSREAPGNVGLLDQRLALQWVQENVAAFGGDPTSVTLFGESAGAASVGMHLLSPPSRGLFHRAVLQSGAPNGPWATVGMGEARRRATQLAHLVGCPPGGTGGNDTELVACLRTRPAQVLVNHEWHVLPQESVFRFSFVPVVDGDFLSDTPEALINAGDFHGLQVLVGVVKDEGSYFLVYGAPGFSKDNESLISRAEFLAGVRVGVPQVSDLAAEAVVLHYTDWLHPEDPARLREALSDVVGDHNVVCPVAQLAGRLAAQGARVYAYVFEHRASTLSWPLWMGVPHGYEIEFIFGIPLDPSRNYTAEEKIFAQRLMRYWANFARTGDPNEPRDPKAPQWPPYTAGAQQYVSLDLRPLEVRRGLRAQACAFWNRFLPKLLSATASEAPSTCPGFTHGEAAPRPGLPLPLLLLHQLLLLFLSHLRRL

Compound | Einfluß auf das Gedächtnis: Zahl der Tiere in %, bei denen die Skopolaminwirkung aufgehoben wurde [2] | Stimulierung der Nerven-Muskelübertragung, in % der Amplitude: EPP [3] | Stimulierung der Nerven-Muskelübertragung, in % der Amplitude: minEPP [3] | Verdrängung des 3H-Propyl-2-aminobenzylats im Gehirn des Kaninchens (M-cholinrezeptoren) (M-cholinrezeptoren; [10]) | Verdrängung des 3H-Propyl-2-aminobenzylats im Gehirn des Kaninchens (M-cholinrezeptoren) (M-cholinrezeptoren; [11]) | Verdrängung des 3H-Clonidins in der Hirnrinde des Kaninchens (α2-Adrenorezeptoren) (α2-Adrenorezeptoren; [10]) | Verdrängung des 3H-Clonidins in der Hirnrinde des Kaninchens (α2-Adrenorezeptoren) (α2-Adrenorezeptoren; [11]) | α2-adrenoblockierende Wirkung (α2-Adrenorezeptoren) | inhibition at 10 µM (M2-Cholinrezeptoren; Konzentration 1.10^-5 Mol) | inhibition at 1 µM (M2-Cholinrezeptoren; Konzentration 1.10^-6 Mol) | Serotonin 1.10^-6 (Mol): Dauer, Min. (Uterus der Ratte; Konzentration 1.10^-5 Mol) | Adrenalin 1.10^-6: Dauer, Min. (Samenleiter der Ratte; Konzentration 1.10^-4 Mol) | Adrenalin 1.10^-6: Dauer, Min. (Samenleiter der Ratte; Konzentration 1.10^-5 Mol) | LD50 [5, 13] | TD50 [7, 12] | further results
Cc1nc2c(c(N)c1C)CCC2 [Verbindung 1, 4-Amino-2,3-dimethyl-6,7-dihydro-5H-1-pyrindinhydrochlorid] | 70% | 50% | 90% | 28 | 0 | 26 | 0 | α2-adrenoblockierende Wirkung zeigt | 0% | 0% | – | – | – | – | – | Änderung der Dauer der Seitenlage, in %: Hexenal 60 mg/kg (Wirkung von Hexenal): +28%; Antiarrhythmische Wirkung: Verlängerung d. Lebensdauer von Ratten an Hand des CaCl2-Arrhythmie-Modells, in % [1]: 150%; Analgetische Wirkung: Abnahme d. Zahl der "Krämpfe" bei Mäusen, in % (Zahl der Krämpfe): 60%; Ki [4]: 1.07 µM; Änderung der Orientierungsaktivität, in % (Orientierungsaktivität): -25%; LD50 [5]: 15 mg/kg; Antiarrhythmische Wirkung: Verlängerung d. Refraktärzeit (R), in % [6]: 120%; Verhältnis TD50 zu ED50 ([7]; ED50 = dose blocking the effect of Skopolamin in 50 % of the animals (passive avoidance, mice)): 15; TD50 (Tremor) [7, 12]: 6 mg/kg
Nc1c2c(nc3ccccc13)CCCC2 [Verbindung 41, 2,3,4,5-Tetrahydro-9-amino-acridin, reference compound] | – | 22% | 40% | 0 | 0 | 27 | 0 | in demselben Maße | 50% | 10% | 5±0.5 Min. | 2±0.2 Min. | 2±0.06 Min. | 30 mg/kg | 10 mg/kg | activity at 100 µM (Uterus der Ratte; read-out: Acetylcholin 1.10^-6 (Mol): Amplidude, % bezogen auf d. Kontrolle, Uterus der Ratte (as head prints), Konzentration 1.10^-4 Mol, ditto mark -"- repeats unverändert): 26%; activity at 10 µM (Uterus der Ratte; read-out: Acetylcholin 1.10^-6 (Mol): Amplidude, % bezogen auf d. Kontrolle, Uterus der Ratte (as head prints), Konzentration 1.10^-5 Mol, ditto mark -"- repeats unverändert): 100%; activity at 100 µM (Uterus der Ratte; read-out: Serotonin 1.10^-6 (Mol): Amplitude, % bezogen auf die Kontrolle, Uterus der Ratte, Konzentration 1.10^-4 Mol): 0%; activity at 10 µM (Uterus der Ratte; read-out: Serotonin 1.10^-6 (Mol): Amplitude, % bezogen auf die Kontrolle, Uterus der Ratte, Konzentration 1.10^-5 Mol): 164%; activity at 100 µM (Samenleiter der Ratte; Rattus norvegicus, read-out: Adrenalin 1.10^-6: Amplitude, % bezogen auf d.Kontrolle, Samenleiter der Ratte, Konzentration 1.10^-4 Mol): 35%; activity at 10 µM (Samenleiter der Ratte; Rattus norvegicus, read-out: Adrenalin 1.10^-6: Amplitude, % bezogen auf d.Kontrolle, Samenleiter der Ratte, Konzentration 1.10^-5 Mol): 120%; IC50 ([8]; read-out: Blockierung der Na^+-Durchlässigkeit der Membrane Ic50 (Mol), node of Ranvier, frog sciatic nerve fibres, voltage clamp): 15 µM; IC50 ([9]; read-out: Blockierung der K^+-Durchlässigkeit der Membrane Ic50 (Mol), node of Ranvier, frog sciatic nerve fibres, voltage clamp): 800 µM
Nc1c2c(nc3c1CCC3)CCCC2 [Verbindung 40, 9-Amino-2,3,5,6,7,8-hexahydro-1 H-cyclopenta(b)chinolinhydrochloridhydrat, reference compound] | 60% | 55% | 100% | 10 | 0 | 10 | 0 | fehlt jedoch praktisch | – | – | 25±0.4 Min. | 28±0.8 Min. | 25±0.6 Min. | 44 mg/kg | 23.2 mg/kg | Acetylcholin 1.10^-6 (Mol): Dauer, Min. (Uterus der Ratte; Konzentration 1.10^-4 Mol): 30±0.9 Min.; Acetylcholin 1.10^-6 (Mol): Dauer, Min. (Uterus der Ratte; Konzentration 1.10^-5 Mol): 30±0.5 Min.; Serotonin 1.10^-6 (Mol): Dauer, Min. (Uterus der Ratte; Konzentration 1.10^-4 Mol): 30±0.5 Min.; IC50 ([8]; node of Ranvier, frog sciatic nerve fibres, voltage clamp, read-out: Blockierung der Na^+-Durchlässigkeit der Membrane Ic50 (Mol)): 200 µM; IC50 ([9]; node of Ranvier, frog sciatic nerve fibres, voltage clamp, read-out: Blockierung der K^+-Durchlässigkeit der Membrane Ic50 (Mol)): 450 µM; Verdrängung des 3H-Chinuklidins im Kaninchenherzen (M2-Cholinrezeptoren) (M2-Cholinrezeptoren; [10]): 0; Verdrängung des 3H-Chinuklidins im Kaninchenherzen (M2-Cholinrezeptoren) (M2-Cholinrezeptoren; [11]): 0
